Experimental data from patent US20190307740A1, “COMPOSITIONS AND METHODS FOR TREATMENT RELATED TO FALL AND FALL FREQUENCY IN NEURODEGENERATIVE DISEASES” (Neurocea, LLC, priority 2016, published 2019).
Where two headings read alike, the source gives them in different places.

What was measured:
[1] = system: rats with a unilateral 6-hydroxydopamine lesion; experiment: LIDs in rats with a unilateral 6-hydroxydopamine lesion; format: in vivo; conditions: parkinsonian rat model of LIDs
nAChR = conditions: cited from earlier work
[2] = system: subjects with idiopathic PD with LIDs; conditions: for Study discontinuation, primary reason adverse event, n (%): 35 randomized
Description: (§1) At the time the study was performed (2009), there was no FDA accepted instrument for measuring treatment efficacy for LIDs. Therefore, several secondary objectives were utilized to assess efficacy including the Unified Dyskinesia Rating Scale (UDysRS).
A total of 65 male and female subjects with idiopathic PD with LIDs were randomized in the study. The study consisted of 4 phases (FIG. 6A): screening phase (up to 3 weeks), double-blind treatment phase (10 weeks), taper phase (2 weeks), and follow-up phase (2 weeks). The approximate duration of the study for each subject was 17 weeks. […] During the double-blind treatment phase, dosing was begun at Visit 0 at 1 mg every 6 hours (total daily dose [TDD]=4 mg/day) and escalated upwards at 2-week intervals as follows: 2 mg every 6 hours (TDD=8 mg/day) at Visit 1 (Week 2); 4 mg every 6 hours (TDD=16 mg/day) at Visit 2 (Week 4); 6 mg every 6 hours (TDD=24 mg/day) at Visit 3 (Week 6). Subjects were maintained on 24 mg/day for 4 weeks. The subsequent taper phase (2 weeks total), beginning at Visit 4 (Week 10), consisted of 9 days of drug taper and 5 days off drug prior to Visit 5 (final safety visit). […] Ondansetron was provided by the sponsor and dispensed with each dose escalation step with instructions to use it for nausea and vomiting only during the first 4 days following dose initiation or escalation. […] No other dose down-titration was allowed.
(§2) Efficacy was measured with the Unified Dyskinesia Rating Scale (UDysRS), a semi-quantitative assessment, FDA-validated instrument to assess […] dyskinesia in PD. […] Dosing was begun at 1 mg every 6 hours to a final dose of 24 mg per day. Patients who tolerated a total daily dose of at least 16 mg per day continued in the study.
Subjects were maintained on 24 mg/day for 4 weeks. The subsequent taper phase (2 weeks total), beginning at visit 4 (Week 10), consisted of 9 days of drug taper and 5 days off drug prior to Visit 5 (final safety visit). […] No other down-titration was allowed.
(§3) LIDs were assessed by the UDysRS, the main measure of LIDs (Table 12). […] The study was conducted in accordance with the Declaration of Helsinki and Good Clinical Practice Guidelines. All sites received approval from an institutional review board and written informed consent was obtained from each patient prior to participation.

[3] = system: subjects with idiopathic PD with LIDs
Description: as §1, §2, §3
(§4) The efficacy variables for LIDs were the mean change from baseline to week 10 in the UDysRS total score; UDysRS sub-scores (Table 12). An analysis of covariance (ANCOVA) combined features of regression and analysis of variance (ANOVA). In addition to the descriptive summary of each variable from baseline to endpoint, Least Square (LS) means standard errors and 95% Confidence intervals (CI) of each group, and the difference of LS means between the 2 treatment groups and its 95% CI are presented. A similar analysis was applied to comparisons between UPDRS Part II, UPDRS Part III.

[4] = system: subjects with idiopathic PD with LIDs; conditions: during the 10-week study
Text: The original UPDRS scale was used. […] In the UPDRS Part II, Question 13 is on Falling unrelated to Freezing. […] In Part II, Question 14 is on Freezing when Walking. This is a 5-point item and has two variables freezing and falls. […] Questions 13 and 14 were compared separately (Table 11).
as §4

[5] = system: subjects with idiopathic PD with LIDs; conditions: Visit 4 (Week 10)
Description: as §1

[6] = cited from earlier work; for absorption: oral / gastrointestinal tract
all nAChRs = conditions: cited from earlier work
[7] = Phase 2 data used for sample size

## c1cncc(OC[C@@H]2CCN2)c1 [A-85380]
[1]
  effect on LIDs: reduced LIDs to varying extents

## Cc1ncccc1OC[C@@H]1CCCN1 [ABT-089]
nAChR
  Type of agonist: Partial

## c1cc2cc(-c3ccc(O[C@H]4CN5CCC4CC5)nn3)ccc2[nH]1 [ABT-107]
nAChR
  Type of agonist: Full

## Clc1cc(N2C[C@@H]3CN[C@@H]3C2)cnc1Cl [ABT-894]
nAChR
  Type of agonist: Full

## Cc1ccc(-c2ccc(OC3CN4CCC3CC4)cn2)cc1 (centres unmarked) [AQW051]
nAChR
  Type of agonist: Partial

## O=C(c1ccc(Cl)o1)N1CC2CNCC2C1 (centres unmarked) [AZD1446]
nAChR
  Type of agonist: Full

## CN1CCC[C@H]1c1cccnc1 [Nicotine, (S)-3-[1-methylpyrrolidin-2-yl]pyridine, reference compound]
[2]
  Study discontinuation, primary reason adverse event, n (%): 6 n (%)
[2]; listed as nicotine
  Study discontinuation, primary reason adverse event, n (%): Six
[2]; after taper from 24 mg/day
  impulsivity and nicotine withdrawal symptoms: no issues with impulsivity or withdrawal symptoms
[2]; oral 4 times/day up to 24 mg/day, 10 weeks
  overall safety and tolerability: safe and well tolerated
[3]; [7]
  UDysRS part III, Week 10 result: change from baseline, mean: 5.2
  UDysRS walking, Week 10 result: change from baseline, mean: 4.4
[3]; in vivo
  Gait-subtest of the UDysRS vs placebo: statistically superior to placebo
  dyskinesia disability (UDysRS part 3), Walking, LF-ADL and PGI-C responders vs placebo: Statistically significant differences favoring nicotine compared to placebo
[4]
  worsening of Parkinson symptoms (UPDRS Part III, Hoehn and Yahr): neither the UPDRS Part III nor the Hoehn and Yahr scales showed any worsening
[4]; listed as nicotine
  worsening of Parkinson symptoms (UPDRS Part III, Hoehn and Yahr): did not cause any worsening of the PD symptoms
[5]; p=0.0048 vs placebo
  PGI-C responders (score of 1, 2, or 3): 21 (77.8%)
[5]; p=0.0453
  LF-ADL responders (>25% reduction from baseline), vs placebo: statistically significant difference between treatment groups
Rats and mice; in vivo
  efficacy over time: no decline in its efficacy over time
Rats and mice; oral application, injection, slow-release minipumps
  effect on LIDs: reduced LIDs
nAChR
  Type of agonist: Full
  nAChR subtype: All
[6]; in vivo
  first-pass metabolism: extensively metabolized into cotinine
  half-life: very short half-life
[6]
  absorption: well-absorbed in the gastrointestinal tract
[6]; listed as nicotine
  absorption: rapidly absorbed

## CN[C@@H](C)C/C=C/c1cncc(OC)c1 [TC-2696]
[1]
  effect on LIDs: reduced LIDs to varying extents

## c1cnc2cc3c(cc2n1)[C@@H]1CNC[C@H]3C1 [Varenicline]
[1]
  effect on LIDs: reduced LIDs to varying extents
All nAChRs
  Ki: 0.1 nM
nAChR
  Type of agonist: Partial
  nAChR subtype: All

## OCCCCC#Cc1cncc(OC[C@@H]2CCN2)c1 [sazetidine]
[1]
  effect on LIDs: reduced LIDs to varying extents
